# Measurements reported in article PMC9558423 (Molecular nutrition & food research, 2020).
# Where two headings read alike, the source gives them in different places. Marks after values point to notes of the source that are not given here.
# Experiments:
# [1] = rat, in vivo, 350 mg/kg
# [2] = for Plasma AUC: plasma 0–48h, trapezoidal; for Qualitative Tmax (blood collection with greatest plasma level): blood every 6h, np = no peak; for Cmax / AUC / Tmax: plasma
# [3] = for Qualitative Tmax (urine collection with greatest excretion): 12h urine collections, np = no peak; for Cmax (nmol excreted) / Tmax: urine; for Cmax (nmol excreted): mean ± SD; for Time of maximal urinary excretion after dosing: as stated in text/figure legend, doses not separated; for Tmax: female, Sprague Dawley, rat, po
# [4] = High dose (1000 mg/kg bw), mean ± SD
# [5] = Low dose (75 mg/kg bw), mean ± SD
# [6] = female, Sprague Dawley, rat, po, 75 mg/kg
# [7] = female, Sprague Dawley, rat, po, 350 mg/kg
# [8] = female, Sprague Dawley, rat, po, 1000 mg/kg
# [9] = Medium dose (350 mg/kg bw), mean ± SD
Molecule,"Plasma AUC [2, 4]",Qualitative Tmax (urine collection with greatest excretion) ([3]; Low dose (75 mg/kg bw)),Cmax (nmol excreted) ([3]; Low dose (75 mg/kg bw)),Cmax (nmol excreted) ([3]; Medium dose (350 mg/kg bw)),Qualitative Tmax (blood collection with greatest plasma level) ([2]; Low dose (75 mg/kg bw)),"Cmax [2, 5]","AUC [2, 6]","AUC [2, 7]","Cmax [2, 7]","Tmax [2, 7]","AUC [2, 8]","Cmax [2, 8]","Tmax [2, 8]",Cmax (nmol excreted) ([3]; High dose (1000 mg/kg bw)),Time of maximal urinary excretion after dosing [3],Tmax ([3]; 350 mg/kg),Tmax ([3]; 1000 mg/kg),Qualitative Tmax (urine collection with greatest excretion) ([3]; High dose (1000 mg/kg bw)),Qualitative Tmax (urine collection with greatest excretion) ([3]; Medium dose (350 mg/kg bw)),also measured
"COc1ccc(-c2oc3cc(O)cc(O)c3c(=O)c2O)cc1O [4-OMe-quercetin, 4-methoxyquercetin]",,,,,,,,,,,,,,,,,,,,Qualitative Tmax (urine collection with greatest excretion) [1]: 0 to 12 h
"COc1cc(/C=C/C(=O)O)ccc1O [Ferulic acid, ferulic acid]",trace,np,np,11.7 ± 3.0 nmol excreted,,,,,,,,,,,,,,0 to 24 h,0 to 24 h,
"O=C(O)CNC(=O)c1ccccc1 [Hippuric acid, hippuric acid]",,np,np,700 ± 78 nmol excreted,np,np,25.8 ± 3.08 µM·h,47.7 ± 5.13 µM·h,1540 ± 510 nM,12 h,74.3 ± 7.54 µM·h,2060 ± 806 nM,24 to 36 h,598 ± 146 nmol excreted,12 to 24 h,12 to 24 h,12 to 24 h,,,"Amount excreted in urine, medium vs high dose ([3]; medium (350) vs high (1000 mg/kg bw) dose): no difference"
Caffeic acid glucuronide,0.92 ± 0.20 ^y uM*h,np,np,261 ± 50 nmol excreted,np,np,,,,,,,,379 ± 134 nmol excreted,,,,0 to 12 h,0 to 12 h,"Qualitative Tmax (blood collection with greatest plasma level) ([2]; High dose (1000 mg/kg bw)): 6 h; Cmax [2, 4]: 84 ± 20 nM; Plasma AUC [2, 5]: 0.36 ± 0.06 ^w uM*h; Qualitative Tmax (blood collection with greatest plasma level) ([2]; Medium dose (350 mg/kg bw)): 6 h; Plasma AUC [2, 9]: 0.55 ± 0.11 ^x uM*h; Cmax [2, 9]: 21 ± 8 nM"

# The next lines start with results.
"Plasma AUC [2, 4]",Qualitative Tmax (urine collection with greatest excretion) ([3]; Low dose (75 mg/kg bw)),Cmax (nmol excreted) ([3]; Low dose (75 mg/kg bw)),Cmax (nmol excreted) ([3]; Medium dose (350 mg/kg bw)),Qualitative Tmax (blood collection with greatest plasma level) ([2]; Low dose (75 mg/kg bw)),"Cmax [2, 5]","AUC [2, 6]","AUC [2, 7]","Cmax [2, 7]","Tmax [2, 7]","AUC [2, 8]","Cmax [2, 8]","Tmax [2, 8]",Cmax (nmol excreted) ([3]; High dose (1000 mg/kg bw)),Time of maximal urinary excretion after dosing [3],Tmax ([3]; 350 mg/kg),Tmax ([3]; 1000 mg/kg),Molecule,Qualitative Tmax (urine collection with greatest excretion) ([3]; High dose (1000 mg/kg bw)),Qualitative Tmax (urine collection with greatest excretion) ([3]; Medium dose (350 mg/kg bw)),also measured
,np,np,0.72 ± 0.14 nmol excreted,np,np,0.32 ± 0.01 µM·h,0.34 ± 0.05 µM·h,8 ± 2 nM,6 h,0.57 ± 0.14 µM·h,23 ± 5 nM,6 h,1.83 ± 0.28 nmol excreted,,0 to 12 h,0 to 12 h,"O=C(O)[C@H]1O[C@@H](Oc2c(-c3ccc(O)c(O)c3)oc3cc(O)cc(O)c3c2=O)[C@H](O)[C@@H](O)[C@@H]1O [Quercetin glucuronide, quercetin-3-O-glucuronide]",,,
trace,,1.03 ± 0.30 nmol excreted,12.2 ± 3.0 nmol excreted,,,,,,,,,,35.1 ± 6.0 nmol excreted,≤ 12 h,0 to 12 h,0 to 12 h,"COc1cc(C(=O)O)cc(OC)c1O [Syringic acid, syringic acid]",,,Tmax ([3]; 75 mg/kg): 0 to 12 h
